From US12173088B2, “Anti-microbial peptides” (priority 2018, dated 2024)
Like-named read-outs stand apart in the source and are kept apart here. Peptide text beside a SMILES is read from it.

Tests used:
[1] = system: S. aureus USA300 biofilms; conditions: 25 μM; 24 hour formed static biofilms
Description: The antibiofilm activity of the peptide against 24 hours established biofilms was evaluated. In short, S. aureus USA300 (10^5 CFU/mL) was made from exponential phase bacteria in TSB media and 200 μL was distributed to each well of the microtiter plate (Corning Costar Cat No. 3595). The plates were incubated at 37° C. for 24 hours to form biofilm. Culture treated with water served as a positive control while media without bacterial inoculation served as the negative control. Media was then pipetted out and the attached biofilms were washed with 1×PBS to remove the planktonic bacteria. Each well of the plate was then filled with 20 μL of 10× peptide solution and 180 μL of fresh TSB media and the plates were further incubated at 37° C. for 24 hours. Media was then pipetted out and the wells were washed with 1×PBS to remove planktonic cells. Live cells in the biofilms were then quantitated using XTT [2,3-bis(2-methyloxy-4-nitro-5-sulfophenyl)-2H-tertazolium-5-carboxanilide] assay by following the manufacturer's instructions with modifications. 180 μL of fresh TSB and 20 μL of XTT solution was added to each well and the plates were again incubated at 37° C. for 2 hours. Absorbance at 450 nm (only media with XTT containing wells served as the blank) was obtained using a ChroMate® microtiter plate reader. […]

E. coli ATCC 25922 = format: cell-based, Escherichia coli; conditions: ATCC 25922
In short: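 Peptides, serially diluted two-fold, were incubated overnight at 37 °C with E. coli ATCC 25922 from log-phase cultures adjusted to OD600 0.001. Turbidity at 630 nm served as the read-out in this broth microdilution format.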

[2] = Stability in mouse plasma and peritoneal fluid; format: in vitro ADME; conditions: murine peritoneal fluids or plasma for 3 hours
Description: Stability of horine and verine was evaluated in the presence of mouse plasma and peritoneal fluid using SDS-PAGE electrophoresis. […] […] The gels were stained using the Coomassie Brilliant Blue G-250 dye.

[3] = system: human red blood cells (hRBCs); assay: Hemolytic assay; format: cell-based
In short: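 HL50 marks the peptide level lysing half of a 2% (v/v) suspension of washed human erythrocytes after 1 h at 37 °C. Released hemoglobin measured at 545 nm, scaled between PBS (0%) and Triton X-100 (2% or 1%; 100%). Selectivity index computed as HL50 over MIC.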

[4] = system: Klebsiella pneumoniae clinical strains; assay: microbe, parasite or virus in culture; conditions: clinical strains
in vivo = assay: in vivo
Description: The efficacy of the two peptides was also investigated in non-neutropenic mice against S. aureus USA300. A higher bacterial inoculum at 2×10^8 CFU per mouse was used. […] To evaluate the peptide pharmacokinetics (Chhonker, et al. (2018) Biomed. Chromatogr. e4389), the plasma clearance rate of horine after intravenous injection of 10 mg/kg into BALB/c mice was followed.

K. pneumoniae ATCC 13883 = format: cell-based, Klebsiella pneumoniae; conditions: ATCC 13883
In short: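 Broth microdilution in tryptic soy broth: log-phase cultures (OD600 ≈0.5) diluted to OD600 0.001, given two-fold peptide dilutions, incubated overnight at 37° C. Growth read at 630 nm.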

[5] = Cell viability assay (MTS); format: cell-based; conditions: human, read-out: LC50
Description: Peptides assessed for potential cytotoxicity using HepaRG (human hepatic progenitor cell line) and HEK-293 (human embryonic kidney) cells. Briefly, cells were seeded at a density of 1×10^4 per well in a tissue culture 96-well plate. For HepaRG cells, the working medium is prepared by adding the HepaRG Supplement to 100 ml/500 ml of Williams' Medium E and 1 ml/5 ml of GlutaMAX-1. For HEK-293 cells, DMEM supplemented with 10% fetal bovine serum (FBS) for both cell lines, and incubated at 37° C. in a 5% CO2 atmosphere for 24 hours. Culture medium was aspirated and replaced with fresh serum free media. Cells were exposed to different concentration of horine and verine for 1 hour at 37° C. in a 5% CO2 atmosphere. Post-incubation, the cells were washed and incubated with 100 μL of HepaRG specific/DMEM media containing 20 μL of MTS reagent for 2 hours at 37° C. Absorbance was read at 492 nm using a ChroMate® microplate reader (GMI).

[6] = HEK-293 (human embryonic kidney) cells, HEK293
[7] = HepaRG (human hepatic progenitor cell line)

Compound	S. aureus killed in biofilms [1] [%]	MIC EC (E. coli ATCC 25922) (E. coli ATCC 25922) [µM]	Stability after incubation [2]	HL50 [3] [µM]	MIC [4] [µM]	Time to become undetectable in plasma (in vivo; 10 mg/kg i.v.) [h]	level at 5 min (in vivo; BALB/c, mouse, plasma, iv, 10 mg/kg) [ng/mL]	MIC K. pneumonia ATCC 13883 (K. pneumoniae ATCC 13883) [µM]	CC50 at 1 hour [5, 6] [µM]	CC50 at 1 hour [5, 7] [µM]	HL50 ([3]; Table 12)
CC(C)C[C@H](NC(=O)[C@H](CC(C)C)NC(=O)[C@H](CCCCN)NC(=O)[C@H](CC(C)C)NC(=O)CNC(=O)[C@H](CC(C)C)NC(=O)[C@H](CO)NC(=O)[C@H](CC(C)C)NC(=O)[C@H](CC(C)C)NC(=O)[C@H](CC(C)C)NC(=O)[C@H](CCCCN)NC(=O)[C@H](CC(C)C)NC(=O)CN)C(N)=O [DFT561, GLKLLLSLGLKLL] (H-GLKLLLSLGLKLL-NH2; N-terminus and C-terminus assumed)	60	>25	–	–	–	–	–	–	–	–	–
CC(C)C[C@H](NC(=O)[C@H](Cc1c[nH]c2ccccc12)NC(=O)[C@H](Cc1c[nH]c2ccccc12)NC(=O)[C@@H](N)Cc1c[nH]c2ccccc12)C(=O)N[C@@H](CCCNC(=N)N)C(=O)N[C@@H](CCCNC(=N)N)C(=O)N[C@@H](CCCNC(=N)N)C(=O)N[C@@H](Cc1c[nH]c2ccccc12)C(N)=O [Horine, WWWLRRRW] (H-WWWLRRRW-NH2; N-terminus and C-terminus assumed)	–	–	stable and active	150	>64	≤ 1	266	>25	> 100	> 80	–
CC(C)[C@H](NC(=O)[C@H](Cc1c[nH]c2ccccc12)NC(=O)[C@H](Cc1c[nH]c2ccccc12)NC(=O)[C@H](Cc1c[nH]c2ccccc12)NC(=O)[C@H](Cc1c[nH]c2ccccc12)NC(=O)[C@H](CCCNC(=N)N)NC(=O)[C@H](CCCNC(=N)N)NC(=O)[C@@H](N)CCCNC(=N)N)C(N)=O [Verine, RRRWWWWV] (H-RRRWWWWV-NH2; N-terminus and C-terminus assumed)	–	–	stable and active	–	–	–	–	–	> 80	> 80	130^2 μM
